# Test results as given in patent US10751358B2, “Multitargeted nucleoside derivatives” (priority 2017, dated 2020).
# How the values were obtained:
# [1] = tested on: KG-1 human acute myeloid leukemia cells; assay: Cell viability assay of Promega, KG-1 cells; type: cell-based; conditions: for IC50: Homo sapiens, cell viability; for Ratio (IC50-value of capecitabine/IC50-value of test compound): fold potency versus capecitabine
# Description: Using the cell viability assay of Promega, the following IC50-values were obtained against KG-1 human acute myeloid leukemia cells (Table 3). The nucleoside carbamate capecitabine (Xeloda®) is included for comparison).
# [2] = tested on: human colon cancer HCT-116 cells; assay: HCT-116 xenograft test for in vivo oral anticancer activity; parameters: species or system mice
# Description: This example provides a description of HCT-116 xenograft test for in vivo oral anticancer activity of 6a.
# Forty athymic nude mice (NCr nude, female, 5-6 weeks old, 20-25 g, Taconic) were inoculated with 6×10^6 exponentially growing human colon cancer HCT-116 cells, 1:1 ratio with Matrigel in 100 microliter into the right flank. Over the following 10 days, tumors reached a volume of 70 to 130 mm^3. Tumor volume were caliper-measured and calculated as length×width×width/2. Thirty mice were randomly allocated into three groups: (1) vehicle control group, (2) 6a test group, and (3) capecitabine (Cayman Chemical Co.) positive control group, with 10 mice into each group. Dosing solutions of each were prepared and kept refrigerated during the course of the test. Each mouse was dosed daily by oral administration.
# After starting the dosing, body weights and tumor size measurements were recorded twice weekly to the end of the test.
# M14 = assay: NCI panel growth inhibition, M14; type: cell-based; conditions: Homo sapiens, 10 micromolar
# Description: (§1) A sample of the variety of human cancer cell lines, whose growth was inhibited more than 50% by 10 micromolar concentration of the prototype drug 6a, is shown in Table 2.
# (§2) The description of the human cancer cell lines used is as follows: ACHN, human renal adenocarcinoma; HL-60(TB), human acute myeloid leukemia; HCT-116, human colon carcinoma; HOP-62, human adenocarcinoma (non-small cell lung cancer); M14, human metastatic malignant melanoma; MCF7, human mammary adenocarcinoma; OVCAR-8, human ovarian carcinoma.
# [3] = tested on: National Cancer Institute's panel of human cell lines; assay: National Cancer Institute's panel of human cell lines in culture; type: cell-based; conditions: 10 micromolar, cell lines of Table 2, read-out: growth inhibition of the sampled human cancer cell lines
# Description: as §1
# ACHN = assay: NCI panel growth inhibition, ACHN; type: cell-based; conditions: Homo sapiens, 10 micromolar
# Description: as §1, §2
# OVCAR-8 = assay: NCI panel growth inhibition, OVCAR-8; type: cell-based; conditions: Homo sapiens, 10 micromolar
# Description: as §1, §2
# MCF-7 = assay: NCI panel growth inhibition, MCF-7; type: cell-based; conditions: Homo sapiens, MCF7, 10 micromolar
# Description: as §1, §2
# HCT-116 = assay: NCI panel growth inhibition, HCT-116; type: cell-based; conditions: Homo sapiens, 10 micromolar
# Description: as §1, §2
# HL60 = assay: NCI panel growth inhibition, HL60; type: cell-based; conditions: Homo sapiens, HL-60, 10 micromolar
# Description: as §1, §2
# NCI-H522 = assay: NCI panel growth inhibition, NCI-H522; type: cell-based; conditions: Homo sapiens, 10 micromolar
# Description: as §1, §2
# [4] = molecular target: T1, ribonucleotide reductase (RR) (Homo sapiens, UniProt P23921); assay: Enzyme inhibition by intracellular metabolite: ribonucleotide reductase; type: biochemical; conditions: major target; inactivation by covalent bond formation at the active site
# T1 sequence (P23921 1-792): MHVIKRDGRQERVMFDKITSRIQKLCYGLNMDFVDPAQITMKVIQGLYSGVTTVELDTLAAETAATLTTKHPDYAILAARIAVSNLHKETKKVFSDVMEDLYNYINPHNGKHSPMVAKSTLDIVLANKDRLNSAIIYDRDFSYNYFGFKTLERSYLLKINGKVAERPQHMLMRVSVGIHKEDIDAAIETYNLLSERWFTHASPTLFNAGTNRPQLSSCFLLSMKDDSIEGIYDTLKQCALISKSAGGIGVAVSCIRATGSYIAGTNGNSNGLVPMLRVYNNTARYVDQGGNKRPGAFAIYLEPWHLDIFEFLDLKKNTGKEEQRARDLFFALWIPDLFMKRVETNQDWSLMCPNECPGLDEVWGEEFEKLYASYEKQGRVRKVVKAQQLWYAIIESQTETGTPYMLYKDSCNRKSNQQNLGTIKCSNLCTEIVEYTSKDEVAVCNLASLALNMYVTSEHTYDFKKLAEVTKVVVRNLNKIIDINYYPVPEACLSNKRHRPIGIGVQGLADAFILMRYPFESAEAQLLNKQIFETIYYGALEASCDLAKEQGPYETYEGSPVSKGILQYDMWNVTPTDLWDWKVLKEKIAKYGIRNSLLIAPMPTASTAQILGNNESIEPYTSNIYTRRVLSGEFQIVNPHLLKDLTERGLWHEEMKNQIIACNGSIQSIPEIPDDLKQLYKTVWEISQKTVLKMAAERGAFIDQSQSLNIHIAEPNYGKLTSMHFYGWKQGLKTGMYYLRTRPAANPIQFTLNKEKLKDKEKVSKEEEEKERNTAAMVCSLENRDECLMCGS
# T1 sequence (P31350 1-389 partner): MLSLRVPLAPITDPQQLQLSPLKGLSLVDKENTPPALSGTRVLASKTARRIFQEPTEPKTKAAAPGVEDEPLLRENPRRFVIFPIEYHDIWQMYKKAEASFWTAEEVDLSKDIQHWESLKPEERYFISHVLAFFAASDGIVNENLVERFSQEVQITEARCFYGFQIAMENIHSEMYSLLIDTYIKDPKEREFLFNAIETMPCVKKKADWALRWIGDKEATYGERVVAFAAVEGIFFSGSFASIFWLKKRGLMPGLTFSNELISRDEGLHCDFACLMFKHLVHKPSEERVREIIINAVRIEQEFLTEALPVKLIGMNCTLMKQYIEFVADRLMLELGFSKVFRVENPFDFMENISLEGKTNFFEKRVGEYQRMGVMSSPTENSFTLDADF
# Description: (§3) Several intracellular targets of the present disclosure were identified as essential enzymes required for the biosynthesis and function of DNA. These enzymes are susceptible for inhibition by a multitude of cellular metabolites of the present disclosure, contributing to the observed cytotoxicity.
# (§4) The inhibition of the enzyme targets, TS, RR, and MTase is irreversible, due to mechanism-based inactivation caused by the inhibitory metabolites. The molecular mechanism of the inactivation involves covalent bond formation with the sulfhydryl groups of the active site cysteine residues essential for enzyme activity (see Examples 6, 7 and 8).
# F3dCDP acts as a suicide substrate of the enzyme forming a binary complex between the inhibitor and the enzyme via a covalent bond to the SH-group of the active site cysteine residue: […]
# [5] = molecular target: T2, deoxycytidylate deaminase (DCTD) (Homo sapiens, UniProt P32321); assay: Enzyme inhibition by intracellular metabolite: deoxycytidylate deaminase; type: biochemical; conditions: minor target
# T2 sequence (P32321 1-178): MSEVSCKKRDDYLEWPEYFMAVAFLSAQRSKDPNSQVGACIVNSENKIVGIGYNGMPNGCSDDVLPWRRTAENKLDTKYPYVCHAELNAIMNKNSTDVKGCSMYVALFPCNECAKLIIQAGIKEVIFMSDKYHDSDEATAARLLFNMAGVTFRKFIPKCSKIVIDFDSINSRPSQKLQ
# Description: as §3
# Intracellular esterase hydrolysis of the 5′-substituent of Formula I (R″=phosphorodiamidate), followed by cyclization leads to a cyclic phosphoester intermediate that collapses into a monophosphoramidate. Further hydrolysis by the phosphoramidase activity of HINT1 results in the formation of F3dCMP, the first intracellular phosphorylated metabolite of compounds of Formula I that serves as a substrate and competitive inhibitor of the enzyme dCMP deaminase, and is a precursor of all the other inhibitory nucleotides described above (see Table 1).
# [6] = molecular target: T3, DNA polymerase alpha (Pol α) (Homo sapiens, UniProt P09884); assay: Enzyme inhibition by intracellular metabolites: DNA polymerase alpha; type: biochemical; conditions: major target; inhibition by DNA chain termination and/or DNA fragmentation
# T3 sequence (P09884 1-1462): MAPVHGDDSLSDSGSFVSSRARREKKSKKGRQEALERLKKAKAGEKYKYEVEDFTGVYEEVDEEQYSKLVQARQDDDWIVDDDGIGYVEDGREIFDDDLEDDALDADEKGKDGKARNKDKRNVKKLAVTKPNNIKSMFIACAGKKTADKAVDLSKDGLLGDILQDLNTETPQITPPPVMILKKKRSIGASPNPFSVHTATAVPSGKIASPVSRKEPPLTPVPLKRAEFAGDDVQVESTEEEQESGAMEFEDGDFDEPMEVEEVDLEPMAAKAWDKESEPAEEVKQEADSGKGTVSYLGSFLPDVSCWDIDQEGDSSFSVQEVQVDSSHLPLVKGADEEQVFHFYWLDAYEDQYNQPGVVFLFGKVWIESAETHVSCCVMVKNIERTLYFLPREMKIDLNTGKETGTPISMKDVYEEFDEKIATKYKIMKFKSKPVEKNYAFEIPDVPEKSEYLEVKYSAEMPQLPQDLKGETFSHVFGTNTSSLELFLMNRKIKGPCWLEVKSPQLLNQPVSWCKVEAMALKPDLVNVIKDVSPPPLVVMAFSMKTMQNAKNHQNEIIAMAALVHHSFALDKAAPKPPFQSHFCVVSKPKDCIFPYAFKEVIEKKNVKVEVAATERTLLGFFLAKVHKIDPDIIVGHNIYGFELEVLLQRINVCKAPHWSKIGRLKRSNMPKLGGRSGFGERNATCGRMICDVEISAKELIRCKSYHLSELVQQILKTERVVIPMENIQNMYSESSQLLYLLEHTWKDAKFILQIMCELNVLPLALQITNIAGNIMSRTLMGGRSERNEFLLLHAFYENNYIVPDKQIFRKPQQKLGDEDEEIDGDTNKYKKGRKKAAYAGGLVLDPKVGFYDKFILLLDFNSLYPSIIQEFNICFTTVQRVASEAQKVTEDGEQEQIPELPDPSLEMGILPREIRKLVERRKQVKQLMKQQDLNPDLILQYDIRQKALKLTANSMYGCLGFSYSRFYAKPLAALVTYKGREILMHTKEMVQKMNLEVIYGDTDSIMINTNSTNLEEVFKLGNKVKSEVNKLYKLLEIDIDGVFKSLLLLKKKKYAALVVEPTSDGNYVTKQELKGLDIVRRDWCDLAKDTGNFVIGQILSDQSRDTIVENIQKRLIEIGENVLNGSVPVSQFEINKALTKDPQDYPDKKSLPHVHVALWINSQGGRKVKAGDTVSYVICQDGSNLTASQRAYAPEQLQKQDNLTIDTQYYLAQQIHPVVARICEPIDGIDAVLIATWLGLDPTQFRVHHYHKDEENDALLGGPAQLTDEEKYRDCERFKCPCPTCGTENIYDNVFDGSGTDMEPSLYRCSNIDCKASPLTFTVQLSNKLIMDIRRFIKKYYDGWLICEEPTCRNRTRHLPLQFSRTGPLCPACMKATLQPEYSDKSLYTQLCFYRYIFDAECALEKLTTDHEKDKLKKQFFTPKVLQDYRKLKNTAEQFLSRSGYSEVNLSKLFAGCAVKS
# Description: as §3
# [7] = molecular target: thymidylate synthase (TS) (Homo sapiens, UniProt P04818); assay: Enzyme inhibition by intracellular metabolite: thymidylate synthase; type: biochemical; conditions: major target; inactivation by covalent bond formation at the active site
# Description: as §3, §4
# F3dUMP acts as a suicide substrate of the enzyme thymidylate synthase by forming a covalent ternary complex with the enzyme and the cofactor 5,10-methylenetetrahydrofolate. The binding of the inhibitor to the enzyme is by a covalent bond to the SH-group of the active site cysteine residue involved in catalysis: […]
# Sequence of thymidylate synthase (TS) (P04818 whole entry): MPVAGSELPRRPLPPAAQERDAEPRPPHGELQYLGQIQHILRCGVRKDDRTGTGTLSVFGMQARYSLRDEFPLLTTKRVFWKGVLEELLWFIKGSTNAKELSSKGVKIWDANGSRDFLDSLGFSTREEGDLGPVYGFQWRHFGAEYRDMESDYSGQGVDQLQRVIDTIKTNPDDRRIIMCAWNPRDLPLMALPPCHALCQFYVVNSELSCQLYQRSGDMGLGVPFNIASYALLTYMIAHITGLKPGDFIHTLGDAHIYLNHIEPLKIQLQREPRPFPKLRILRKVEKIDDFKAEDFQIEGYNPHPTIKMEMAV
smiles,measurement,setting,value
"CCCCCOC(=O)Nc1nc(=O)n([C@@H]2O[C@H](C)[C@@H](O)[C@H]2O)cc1F [Capecitabine, capecitabine, reference compound]",IC50,[1],8920 ± 1540 nM
same,Ratio (IC50-value of capecitabine/IC50-value of test compound),[1],1
same,"dose of capecitabine required for anticancer activity comparable to 6a, relative to dose of 6a","[2]; capecitabine 100 mg/kg vs 6a 25 mg/kg, oral",about 4 times
"Nc1nc(=O)n([C@@H]2O[C@H](CO)[C@@H](O)C2(F)F)cc1F [Compound 5, 2′-Deoxy-2′,2′,5-trifluorocytidine]",IC50,[1],34.1 ± 5.27 nM
same,Ratio (IC50-value of capecitabine/IC50-value of test compound),[1],253
"CCCCCOC(=O)Nc1nc(=O)n([C@@H]2O[C@H](CO)[C@@H](O)C2(F)F)cc1F [Compound 6a, N^4-Pentyloxycarbonyl-2′-deoxy-2′,2′,5-trifluorocytidine]",inhibition at 10 µM,M14,85.9%
same,inhibition at 10 µM,[3],> 50%
same,IC50,[1],129 ± 10.7 nM
same,Ratio (IC50-value of capecitabine/IC50-value of test compound),[1],69
same,inhibition at 10 µM,ACHN,86.4%
same,inhibition at 10 µM,OVCAR-8,71.6%
same,in vivo oral anticancer activity (growth of human colon cancer in mice),"[2]; athymic nude mice, daily oral dosing, 25 mg/kg",orally active in vivo
same,inhibition at 10 µM,MCF-7,51.9%
same,inhibition at 10 µM,HCT-116,63.5%
same,inhibition at 10 µM,HL60,75.8%
same,inhibition at 10 µM,NCI-H522,61.1%
"Nc1nc(=O)n([C@@H]2O[C@H](COP(=O)(O)OP(=O)(O)O)[C@@H](O)C2(F)F)cc1F [Compound F3dCDP, 2′,2′,5-trifluorodeoxycytidine diphosphate]",Reversibility of inhibition of RR,[4],Irreversible*
"Nc1nc(=O)n([C@@H]2O[C@H](COP(=O)(O)O)[C@@H](O)C2(F)F)cc1F [Compound F3dCMP, 2′,2′,5-trifluorodeoxycytidine monophosphate]",Reversibility of inhibition of DCTD,[5],reversible
"Nc1nc(=O)n([C@@H]2O[C@H](COP(=O)(O)OP(=O)(O)OP(=O)(O)O)[C@@H](O)C2(F)F)cc1F [Compound F3dCTP, 2′,2′,5-trifluorodeoxycytidine triphosphate]",Reversibility of inhibition of Pol α,[6],Irreversible**
"O=c1[nH]c(=O)n([C@@H]2O[C@H](COP(=O)(O)O)[C@@H](O)C2(F)F)cc1F [Compound F3dUMP, 2′,2′,5-trifluorodeoxyuridine monophosphate]",Reversibility of inhibition of TS,[7],Irreversible*
"O=c1[nH]c(=O)n([C@@H]2O[C@H](COP(=O)(O)OP(=O)(O)OP(=O)(O)O)[C@@H](O)C2(F)F)cc1F [Compound F3dUTP, 2′,2′,5-trifluorodeoxyuridine triphosphate]",Reversibility of inhibition of Pol α,[6],Irreversible**
O=c1[nH]c(=O)n([C@H]2C[C@H](O)[C@@H](CO)O2)cc1C(F)(F)F [Compound F3dUrd],substrate activity for thymidine phosphorylase (cleavage to produce FU),thymidine phosphorylase,did not serve as a substrate for thymidine phosphorylase
"O=c1[nH]c(=O)n([C@H]2C[C@H](O)[C@@H](CO)O2)cc1F [Floxuridine, reference compound]",substrate activity for thymidine phosphorylase (cleavage to produce FU),thymidine phosphorylase,rapidly cleaved by thymidine phosphorylase to produce FU
